Entries after “also recorded” stand apart in the source; their conditions may differ.
Legend:
recombinant PsauGOBP1 [1] = test: Fluorescence competitive-binding assay with 1-NPN as probe; design: species or system Peridroma saucia; conditions: mean ± SE; for IC50: 1-NPN displacement, Tris-HCl pH 7.4, 25 °C, read-out: IC50 (concentration of ligand halving the initial fluorescence value); for IC50 / Fluorescence (%) at Maximum Concentration: three experiments; for Fluorescence (%) at Maximum Concentration: remaining 1-NPN fluorescence; for Kd: calculated from IC50 with KD = [IC50]/1 + [1-NPN]/K1-NPN, read-out: KD (calculated dissociation constant)
Method: (§1) Emission fluorescence spectra were recorded on a Hitachi F-4500 at 25 °C, with a 1 cm light path quartz cuvette and 5 nm slits for both excitation and emission. The protein was dissolved in 50 mM Tris-HCl buffer, pH 7.4, and ligands were added as 1 mM methanol solutions. To measure the affinity of the fluorescent ligand N-phenyl-1-naphthylamine (1-NPN) to PsauGOBP1, a […] solution of the protein in 50 mM Tris-HCl, pH 7.4, was titrated with aliquots of 1 mM ligand in methanol to a final concentration of 16 µM. The probe was excited at 337 nm, and emission spectra were recorded between 380 and 450 nm. To analyze the binding affinity of other ligands to PsauGOBP1, a panel of 34 compounds including moth sex pheromones and host plant volatiles were used in the competitive-binding assay. A solution of the protein and 1-NPN, both at the concentration of […], was titrated with 1 mM methanol solutions of each competitor at a concentration of 12 (sex pheromones) or 16 µM (host plant volatiles).
The dissociation constant for 1-NPN and the stoichiometry of binding were obtained by processing the data with GraphPad Prism 6. Dissociation constants of the competitors were calculated from the corresponding IC50 values (concentrations of ligands that reduced the initial fluorescence value of 1-NPN by 50%), using the following equation: KD = [IC50]/1 + [1-NPN]/K1-NPN, where [1-NPN] is the free concentration of 1-NPN, and K1-NPN is the dissociation constant of the protein/1-NPN complex.

P. saucia antennae = test: Electroantennogram (EAG) recording; design: species or system Peridroma saucia; conditions: dose 100 µg, two- to three-day-old males and females, versus paraffin oil control, n = 20
Method: Individual synthetic nonanal, citral, farnesol, benzaldehyde, (Z)-3-hexenyl acetate, and (Z)-3-hexen-1-ol was diluted with paraffin oil to make each solution of 10 μg/μL. Each solution was added onto a filter paper (0.2 × 1 cm), and the final loading capacity doses of each solution were 100 μg. A 10 μL volume of paraffin oil was used as the control. Two- to three-day-old male and female P. saucia were used to obtain EAG recordings for the six volatiles. As described by Sun et al. with modification, the antennae were cut from the head and used for electro-signal recordings. After a few segments of the tip were cut off, the antenna was glued to the antenna holder (using conductive gel, Spectra 360, Parker Lab, NJ, USA), and the antenna holder was inserted into the EAG probe. The EAG signal was first amplified with a DC/AC preamplifier (Syntech UN-06), and was further processed with Autospike software (Syntech, Hilversum, the Netherlands).
The EAG data were analyzed using GraphPad Prism 6. The level of significance was set at p < 0.05. Unpaired Student’s t-tests were used to compare the EAG responses of male vs. female P. saucia. For comparison of responses to the six volatiles, the EAG data were first subjected to a one-way ANOVA; this was done separately for males and females. If the ANOVA was significant, means were compared with Tukey’s multiple comparison test.

recombinant PsauGOBP1 [2] = test: Affinity of fluorescent probe 1-NPN to PsauGOBP1 (direct titration); design: species or system Peridroma saucia; conditions: direct titration 2–16 µM 1-NPN, excitation 337 nm; single binding site; means of three replicates; read-out: dissociation constant of 1-NPN
Method: as §1
The dissociation constant for 1-NPN and the stoichiometry of binding were obtained by processing the data with GraphPad Prism 6. […]

adult P. saucia = test: Y-tube olfactometer behavioral bioassay; format: in vivo, Peridroma saucia
Method: A Y-tube olfactometer was used to assess the behavioral responses of male and female P. saucia to (Z)-3-hexenyl acetate as described by Yan and Wang with modifications. In brief, the system consisted of a central tube (20 cm long, 6 cm diameter) and two lateral arms (35 cm long, 6 cm diameter). (Z)-3-hexenyl acetate was dissolved in paraffin oil to obtain 10 µg/µL solutions. Filter paper (1 × 2 cm) with 10 µL of sample or 10 µL of paraffin oil was placed in a 250 mL flask. During the test, the room temperature was kept at 24 ± 2 °C with 70% ± 5% humidity and 0.6 lux of red light. […] Moths that moved more than half way along one of the lateral arms and remained for at least 5 s were recorded as having made a choice for the odor offered through that arm. After five individuals were tested, the olfactometer was turned and the flasks were switched in order to avoid positional effects. Tested compounds and paraffin oil were renewed every 5–10 min. The olfactometer and the flask were cleaned with water, ethanol, and acetone at the end of each day.
Chi-squared analyses were performed to determine whether the numbers of P. saucia that made a choice differed between the two odor sources (a 50:50 probability was set for the percentage of moths selecting the control and the test sides. The moths that made no choice were not included in the statistical analysis).

[3] = sex pheromones, maximum concentration 12 (µM)
[4] = host plant volatiles, maximum concentration 16 (µM)

IC50 (recombinant PsauGOBP1 [1])	Fluorescence (%) at Maximum Concentration (recombinant PsauGOBP1 [1]; [4])	Compound	further results
> 20 µM	–	CCCC/C=C\CCCCCCOC(C)=O [Z7-12: Ac]	Fluorescence (%) at Maximum Concentration (recombinant PsauGOBP1 [1]; [3]): 74 ± 4%
> 20 µM	–	CCCC/C=C\CCCCCCCCCCOC(C)=O [Z11-16: Ac]	Fluorescence (%) at Maximum Concentration (recombinant PsauGOBP1 [1]; [3]): 70 ± 2%
> 20 µM	74 ± 7%	C=CC(C)=CCC=C(C)C [Ocimene]	–
11.5 ± 1 µM	40 ± 3%	CC(C)=CCCC(C)=CC=O (mixture of isomers) [Citral]	Kd (recombinant PsauGOBP1 [1]): 5.6 ± 0.4 µM; EAG response of male and female antennae (P. saucia antennae): weak EAG responses and weak
8.2 ± 0.2 µM	19 ± 2%	CC/C=C\CCOC(C)=O [(Z)-3-hexenyl acetate]	Kd (recombinant PsauGOBP1 [1]): 4 ± 0.1 µM; EAG response of male and female antennae (P. saucia antennae): strongest responses; also recorded: strongest EAG response; also recorded: strong responses; percentage of females showing chemotaxis to the compound (adult P. saucia; females, 10 µL of 10 µg/µL in paraffin oil versus paraffin oil, Y-tube): 68%; behavioral response (attraction) of both sexes (adult P. saucia; males and females, choice versus paraffin oil, chi-squared test): attractive; also recorded: attracted; also recorded: significant attraction; percentage of males showing chemotaxis to the compound (adult P. saucia; males, 10 µL of 10 µg/µL in paraffin oil versus paraffin oil, Y-tube): 64%
> 20 µM	94 ± 1%	C=CC(=C)CCC=C(C)C [β-myrcene]	–
> 20 µM	–	CC/C=C\CCCCCCCCOC(C)=O [Z9-12: Ac]	Fluorescence (%) at Maximum Concentration (recombinant PsauGOBP1 [1]; [3]): 72 ± 2%
> 20 µM	77 ± 7%	CCC/C=C/COC(C)=O [(E)-2-hexenyl acetate]	–
> 20 µM	79 ± 2%	C=CC(C)(O)CCC=C(C)C (stereo not drawn) [Linalool]	–
> 20 µM	–	CCCC/C=C\CCCCCCCCOC(C)=O [Z9-14: Ac]	Fluorescence (%) at Maximum Concentration (recombinant PsauGOBP1 [1]; [3]): 78 ± 2%
> 20 µM	87 ± 4%	C=CC(=C)CC/C=C(\C)CCC=C(C)C [(E)-β-farnesene]	–
> 20 µM	67 ± 2%	CCC/C=C/CO [(E)-2-hexen-1-ol]	–
17.4 ± 1.5 µM	58 ± 3%	CC/C=C\CCO [(Z)-3-hexen-1-ol]	Kd (recombinant PsauGOBP1 [1]): 8.5 ± 0.6 µM; EAG response of male and female antennae (P. saucia antennae): strong responses; also recorded: relatively strong

More lines, now with the values behind:

Compound	IC50 (recombinant PsauGOBP1 [1])	Fluorescence (%) at Maximum Concentration (recombinant PsauGOBP1 [1]; [4])	further results
CC(C)=CCC/C(C)=C/CC/C(C)=C/CO [Farnesol]	13.1 ± 1.2 µM	47 ± 4%	Kd (recombinant PsauGOBP1 [1]): 6.4 ± 0.6 µM; EAG response of male and female antennae (P. saucia antennae): weak EAG responses and weak
COC(=O)c1ccccc1O [Methyl salicylate]	> 20 µM	73 ± 3%	–
c1ccc(Nc2cccc3ccccc23)cc1 [1-NPN, N-phenyl-1-naphthylamine]	–	–	Kd (recombinant PsauGOBP1 [2]): 1.9 µM
CC/C=C\CC1=C(C)CCC1=O [(Z)-jasmone]	> 20 µM	83 ± 5%	–
CCCC/C=C\CCCCCCCCCC=O [Z11-16: Ald]	> 20 µM	–	Fluorescence (%) at Maximum Concentration (recombinant PsauGOBP1 [1]; [3]): 89 ± 1%
c1ccc2[nH]ccc2c1 [Indole]	> 20 µM	70 ± 9%	–
O=Cc1ccccc1 [Benzaldehyde]	19.3 ± 1.1 µM	62 ± 2%	Kd (recombinant PsauGOBP1 [1]): 9.4 ± 0.5 µM; EAG response of male and female antennae (P. saucia antennae): strong responses; also recorded: relatively strong
CCCCCCCCC=O [Nonanal]	13.9 ± 0.6 µM	50 ± 2%	Kd (recombinant PsauGOBP1 [1]): 6.8 ± 0.3 µM; EAG response of male and female antennae (P. saucia antennae): weak EAG responses and weak
C=C1CCC2CC1C2(C)C (stereo not drawn) [β-pinene]	> 20 µM	100 ± 2%	–
CC/C=C\CC1C(=O)CCC1CC(=O)OC (stereo not drawn) [Methyl jasmonate]	> 20 µM	80 ± 5%	–
CCCCCC/C=C\CCCCCCCCO [Z9-16: OH]	> 20 µM	–	Fluorescence (%) at Maximum Concentration (recombinant PsauGOBP1 [1]; [3]): 76 ± 1%
C=C(C)[C@H]1CC=C(C)CC1 [D-limonene]	> 20 µM	100 ± 5%	–
CCCC/C=C\CCCCCCCCCCO [Z11-16: OH]	> 20 µM	–	Fluorescence (%) at Maximum Concentration (recombinant PsauGOBP1 [1]; [3]): 70 ± 5%
CC/C=C\C[C@H]1C(=O)CC[C@@H]1CC(=O)O [Jasmonic acid]	> 20 µM	68 ± 3%	–
CCCCCCCCCCCCO [Dodecanol]	> 20 µM	75 ± 8%	–
CCC/C=C/C=O [(E)-2-hexenal]	> 20 µM	64 ± 4%	–
C=C1CC/C=C(\C)CC[C@@H]2[C@@H]1CC2(C)C [(E)-caryophyllene]	> 20 µM	75 ± 1%	–
CCCCCC/C=C\CCCCCCCC=O [Z9-16: Ald]	> 20 µM	–	Fluorescence (%) at Maximum Concentration (recombinant PsauGOBP1 [1]; [3]): 82 ± 3%
CCCCCCCC=O [Octanal]	> 20 µM	61 ± 6%	–
CCCCCCCO [Heptanol]	> 20 µM	65 ± 4%	–
CC(=O)OCCc1ccccc1 [Phenylethyl acetate]	> 20 µM	64 ± 2%	–
CCCCCCCCCC=O [Decanal]	> 20 µM	85 ± 2%	–

From article PMC8540349, “GOBP1 from the Variegated Cutworm Peridroma saucia (Hübner) (Lepidoptera: Noctuidae) Displays High Binding Affinities to the Behavioral Attractant (Z)-3-Hexenyl acetate” (Insects, 2021)
